Measurements as given in patent publication US20020019536A1, “NEW URETHANES, THIO AND DITHIO ANALOGUES AND THEIR USE AS INHIBITORS OF CHOLESTEROL BIOSYNTHESIS” (priority 1997, published 2002).

How the values were obtained:
[1] = tested on: Sacch. carisbergensis ATCC 9080; assay: Fungistatic activity, series dilution test; assay type: cell-based; conditions: Sabouraud broth, 2 to 4 days at 26° C.
Description: (§1) V. Determining the Fungistatic Activity
(§2) The fungistatic activity was determined by the series dilution test (microtitre system). Sabouraud broth was used as the nutrient medium. The inoculum amounted to about 10^4 to 10^5 CFU/ml (CFU=colony-forming units); the incubation period was 2 to 4 days at 26° C.
(§3) The lowest concentration which allows no visible growth (minimum inhibitory concentration MIC) was determined.
(§4) The abovementioned compounds B, E, G, I, K, L, N, Q and R were tested. The MIC is given in μg/ml.

Pen. notatum CBS 19746 = assay: Fungistatic activity, series dilution test; assay type: cell-based; conditions: Sabouraud broth, 2 to 4 days at 26° C.
Description: as §1, §2, §3, §4

Asp. niger ATCC 16404 = assay: Fungistatic activity, series dilution test; assay type: cell-based; conditions: Sabouraud broth, 2 to 4 days at 26° C.
Description: as §1, §2, §3, §4

[2] = tested on: Cand. albicans ATCC 10231; assay: Fungistatic activity, series dilution test; assay type: cell-based; conditions: Sabouraud broth, 2 to 4 days at 26° C.
Description: as §1, §2, §3, §4

[3] = tested on: Trich. mentagrophytes ATCC 9129; assay: Fungistatic activity, series dilution test; assay type: cell-based; conditions: Sabouraud broth, 2 to 4 days at 26° C.
Description: as §1, §2, §3, §4

Rhod. rubra 49 = assay: Fungistatic activity, series dilution test; assay type: cell-based; conditions: Sabouraud broth, 2 to 4 days at 26° C.
Description: as §1, §2, §3, §4

[4] = tested on: 14C-acetate incorporation into the steroids which can be precipitated with digitonin (cholesterol biosynthesis); assay: Inhibition of 14C-acetate incorporation into the steroids which can be precipitated with digitonin; assay type: cell-based; conditions: for IC50: 14C-acetate incorporation
Source text: I. Measuring the Inhibition of ^14C-acetate incorporation into the steroids which can be precipitated with digitonin: The inhibitory effect was investigated using the method described in J. Lipid. Res. 37, 148-157 [1996] at test concentrations of 10^−8 and 10^−9 mol/l.

[5] = target: T1, 2,3-epoxysqualene-lanosterol-cyclase (Rattus norvegicus, UniProt P48450); assay: In-vivo activity in the rat after oral administration: 2,3-epoxysqualene level in the liver
T1 construct: Measuring the in-vivo Activity in the Rat after Oral Administration; from tissue; host or cells: living rat; 2,3-epoxysqualene measured in the liver
T1 sequence (P48450 1-733): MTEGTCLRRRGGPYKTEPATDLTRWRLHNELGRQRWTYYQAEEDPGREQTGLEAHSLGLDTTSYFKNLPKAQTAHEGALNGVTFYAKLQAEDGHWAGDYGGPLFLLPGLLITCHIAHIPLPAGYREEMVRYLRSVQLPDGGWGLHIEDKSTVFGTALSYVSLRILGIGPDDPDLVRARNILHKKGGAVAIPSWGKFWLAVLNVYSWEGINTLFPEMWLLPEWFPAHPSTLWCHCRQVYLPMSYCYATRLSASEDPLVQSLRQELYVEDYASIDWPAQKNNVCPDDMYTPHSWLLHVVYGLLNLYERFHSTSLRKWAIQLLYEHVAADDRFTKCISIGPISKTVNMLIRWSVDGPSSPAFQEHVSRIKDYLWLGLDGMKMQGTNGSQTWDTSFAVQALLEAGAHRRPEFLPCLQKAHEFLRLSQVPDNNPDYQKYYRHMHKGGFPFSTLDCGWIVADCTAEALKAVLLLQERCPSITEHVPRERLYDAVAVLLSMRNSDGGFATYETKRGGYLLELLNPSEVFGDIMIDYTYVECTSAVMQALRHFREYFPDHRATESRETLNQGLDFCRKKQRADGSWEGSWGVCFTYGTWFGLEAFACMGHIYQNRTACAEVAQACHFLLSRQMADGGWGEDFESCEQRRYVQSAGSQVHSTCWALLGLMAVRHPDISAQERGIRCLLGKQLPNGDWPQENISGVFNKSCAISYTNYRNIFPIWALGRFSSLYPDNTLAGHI
Description: II. Measuring the in-vivo Activity in the Rat after Oral Administration
Inhibiting the enzyme 2,3-epoxysqualene-lanosterol-cyclase causes an increase in the 2,3-epoxisqualene levels in the liver and plasma. The quantity of 2,3-epoxysqualene formed therefore serves as a direct measurement of the potency on the animal as a whole. The amounts were determined using the method described in J. Lipid. Res. 38, 564-575, [1997] at t=3 or 8 hours after administration of the substance in concentrations of c=0.01, 0.03, 0.1, 0.3 and 1.0 mg/kg. Table 3 which follows gives the results obtained for the abovementioned substances A, B, C, E, G, H, O and R by way of example.
In the control animals there were no measurable 2,3-epoxisqualene levels under these conditions.

[6] = Lipid reduction in the normolipaemic golden hamster; assay type: in vivo; conditions: dose 5.87 mg/kg/day, compared with control group
Description: III. Lipid Reduction in the Normolipaemic Golden Hamster This was determined using the method described in J. Lipid. Res. 38, 564-575, (1997). At the end of the experiment the total cholesterol, β-lipoprotein-cholesterol and HDL-cholesterol were determined and compared with the values of a control group which were fed without any test substance. The lipid-lowering activity of the abovementioned compounds E, G and I was tested.

[7] = 0.01 mg/kg oral, 3 h after administration
[8] = 0.01 mg/kg oral, 8 h after administration
[9] = 0.03 mg/kg oral, 3 h after administration
[10] = 0.03 mg/kg oral, 8 h after administration
[11] = 0.1 mg/kg oral, 3 h after administration
[12] = 0.1 mg/kg oral, 8 h after administration
[13] = 1.0 mg/kg oral, 3 h after administration
[14] = 1.0 mg/kg oral, 8 h after administration
[15] = 0.3 mg/kg oral, 3 h after administration
[16] = 0.3 mg/kg oral, 8 h after administration

Compound: CCN(CC)Cc1ccc([C@H]2CC[C@H](N(C)C(=O)Oc3ccc(Cl)cc3)CC2)cc1.Cl [L, trans-O-(4-chlorophenyl)-N-4-[4-(diethylaminomethyl)-phenyl]cyclohexyl-N-methylcarbamate-hydrochloride]
- MIC Sacc. [1]: 128 µg/mL
- MIC Pen. (Pen. notatum CBS 19746): 64 µg/mL
- MIC Asp. (Asp. niger ATCC 16404): 32 µg/mL
- MIC Cand. [2]: 32 µg/mL
- MIC Trich. [3]: 1 µg/mL
- MIC Rhod. (Rhod. rubra 49): 8 µg/mL
- percentage inhibition of 14C-acetate incorporation ([4]; test concentration 10^−8 mol/l): −83%
- percentage inhibition of 14C-acetate incorporation ([4]; test concentration 10^−9 mol/l): −53%

Compound: CN(C)Cc1ccc([C@H]2CC[C@H](N(C)C(=S)SCc3ccc(Cl)cc3)CC2)cc1.Cl [D, trans-S-(4-chlorobenzyl)-N-4-[4-(dimethylaminomethyl)-phenyl]cyclohexyl-N-methyldithiocarbamate-hydrochloride]
- percentage inhibition of 14C-acetate incorporation ([4]; test concentration 10^−8 mol/l): −85%
- percentage inhibition of 14C-acetate incorporation ([4]; test concentration 10^−9 mol/l): −51%

Compound: CN(C)Cc1ccc([C@H]2CC[C@H](N(C)C(=S)Sc3ccc(Cl)cc3)CC2)cc1 [A, trans-S-(4-chlorophenyl)-N-4-[4-(dimethylaminomethyl)-phenyl]cyclohexyl-N-methyldithiocarbamate]
- 2,3-epoxysqualene concentration in the liver (rat) [5, 7]: 0.0 µg/g
- 2,3-epoxysqualene concentration in the liver (rat) [5, 8]: 14.6 µg/g
- 2,3-epoxysqualene concentration in the liver (rat) [5, 9]: 11.8 µg/g
- 2,3-epoxysqualene concentration in the liver (rat) [5, 10]: 66.0 µg/g
- 2,3-epoxysqualene concentration in the liver (rat) [5, 11]: 62.6 µg/g
- 2,3-epoxysqualene concentration in the liver (rat) [5, 12]: 312.5 µg/g
- 2,3-epoxysqualene concentration in the liver (rat) [5, 13]: 136.5 µg/g
- 2,3-epoxysqualene concentration in the liver (rat) [5, 14]: 291.9 µg/g
- percentage inhibition of 14C-acetate incorporation ([4]; test concentration 10^−8 mol/l): −85%
- percentage inhibition of 14C-acetate incorporation ([4]; test concentration 10^−9 mol/l): −39%

Compound: Cc1ccc(CC(=O)O[C@H]2CC[C@H](c3ccc(CN(C)C)cc3)CC2)cc1 [W, trans-O-(p-tolylacetyl)-4-(4-dimethylaminomethylphenyl)-cyclohexanol, reference compound]
- IC50 [4]: 9.6 nM
- inhibition at 0.01 µM ([4]; test concentration 10^−8 mol/l, read-out: percentage inhibition of 14C-acetate incorporation): 72%
- inhibition at 0.001 µM ([4]; test concentration 10^−9 mol/l, read-out: percentage inhibition of 14C-acetate incorporation): 21%

Compound: Cc1ccc(OC(=O)N(C)[C@H]2CC[C@H](c3ccc(CN(C)C)cc3)CC2)cc1.Cl [O, trans-N-4-[4-(dimethylaminomethyl)phenyl]cyclohexyl-N-methyl-O-(4-methylphenyl)carbamate-hydrochloride]
- HDL-cholesterol [6]: −12.7%
- Total cholesterol [6]: −17.3%
- β-Lipoprotein-cholesterol [6]: −22.5%
- 2,3-epoxysqualene concentration in the liver (rat) [5, 11]: 53.4 µg/g
- 2,3-epoxysqualene concentration in the liver (rat) [5, 12]: 94.3 µg/g
- 2,3-epoxysqualene concentration in the liver (rat) [5, 15]: 72.6 µg/g
- 2,3-epoxysqualene concentration in the liver (rat) [5, 16]: 113.2 µg/g
- 2,3-epoxysqualene concentration in the liver (rat) [5, 13]: 117.9 µg/g
- 2,3-epoxysqualene concentration in the liver (rat) [5, 14]: 224.8 µg/g
- IC50 [4]: 0.8 nM
- percentage inhibition of 14C-acetate incorporation ([4]; test concentration 10^−8 mol/l): −83%
- percentage inhibition of 14C-acetate incorporation ([4]; test concentration 10^−9 mol/l): −57%

Compound: CN(C)Cc1ccc([C@H]2CC[C@@H](N(C)C(=S)SCc3ccccc3)CC2)cc1.Cl [F, cis-S-benzyl-N-4-[4-(dimethylaminomethyl)phenyl]-cyclohexyl-N-methyldithiocarbamate-hydrochloride]
- percentage inhibition of 14C-acetate incorporation ([4]; test concentration 10^−8 mol/l): −83%
- percentage inhibition of 14C-acetate incorporation ([4]; test concentration 10^−9 mol/l): −40%

Compound: CN(C)Cc1ccc([C@H]2CC[C@H](N(C)C(=S)SCc3ccc(F)cc3)CC2)cc1.Cl [C, trans-S-(4-fluorobenzyl)-N-4-[4-(dimethylaminomethyl)-phenyl]cyclohexyl-N-methyldithiocarbamate-hydrochloride]
- 2,3-epoxysqualene concentration in the liver (rat) [5, 7]: 0.0 µg/g
- 2,3-epoxysqualene concentration in the liver (rat) [5, 8]: 84.8 µg/g
- 2,3-epoxysqualene concentration in the liver (rat) [5, 9]: 33.1 µg/g
- 2,3-epoxysqualene concentration in the liver (rat) [5, 10]: 57.8 µg/g
- 2,3-epoxysqualene concentration in the liver (rat) [5, 11]: 47.0 µg/g
- 2,3-epoxysqualene concentration in the liver (rat) [5, 12]: 133.1 µg/g
- 2,3-epoxysqualene concentration in the liver (rat) [5, 15]: 77.8 µg/g
- 2,3-epoxysqualene concentration in the liver (rat) [5, 16]: 196.5 µg/g
- 2,3-epoxysqualene concentration in the liver (rat) [5, 13]: 68.1 µg/g
- 2,3-epoxysqualene concentration in the liver (rat) [5, 14]: 243.9 µg/g
- percentage inhibition of 14C-acetate incorporation ([4]; test concentration 10^−8 mol/l): −87%
- percentage inhibition of 14C-acetate incorporation ([4]; test concentration 10^−9 mol/l): −52%

Compound: CN(C)Cc1ccc([C@H]2CC[C@H](N(C)C(=O)c3ccc(Cl)cc3)CC2)cc1 [V, reference compound]
- IC50 [4]: 3.8 nM
- percentage inhibition of 14C-acetate incorporation ([4]; test concentration 10^−8 mol/l): −59%
- percentage inhibition of 14C-acetate incorporation ([4]; test concentration 10^−9 mol/l): −23%

Compound: C=CCN(C)Cc1ccc([C@H]2CC[C@H](N(C)C(=O)Oc3ccc(Cl)cc3)CC2)cc1 [M, trans-O-(4-chlorophenyl)-N-methyl-N-4-[4-(N-methyl-N-allylaminomethyl)phenyl]cyclohexylcarbamate]
- percentage inhibition of 14C-acetate incorporation ([4]; test concentration 10^−8 mol/l): −93%
- percentage inhibition of 14C-acetate incorporation ([4]; test concentration 10^−9 mol/l): −74%

Compound: Cc1ccc(OC(=S)N(C)[C@H]2CC[C@H](c3ccc(CN(C)C)cc3)CC2)cc1.Cl [P, trans-N-4-[4-(dimethylaminomethyl)phenyl]cyclohexyl-N-methyl-O-(4-methylphenyl)thiocarbamate-hydrochloride]
- percentage inhibition of 14C-acetate incorporation ([4]; test concentration 10^−8 mol/l): −83%
- percentage inhibition of 14C-acetate incorporation ([4]; test concentration 10^−9 mol/l): −60%

Compound: CN(C)Cc1ccc([C@H]2CC[C@H](N(C)C(=O)Sc3ccc(Cl)cc3)CC2)cc1.Cl [H, trans-S-(4-chlorophenyl)-N-4-[4-(dimethylaminomethyl)-phenyl]cyclohexyl-N-methylthiocarbamate-hydrochloride]
- 2,3-epoxysqualene concentration in the liver (rat) [5, 7]: 2.9 µg/g
- 2,3-epoxysqualene concentration in the liver (rat) [5, 8]: 31.3 µg/g
- 2,3-epoxysqualene concentration in the liver (rat) [5, 9]: 25.7 µg/g
- 2,3-epoxysqualene concentration in the liver (rat) [5, 10]: 25.3 µg/g
- 2,3-epoxysqualene concentration in the liver (rat) [5, 11]: 117.7 µg/g
- 2,3-epoxysqualene concentration in the liver (rat) [5, 12]: 202.3 µg/g
- 2,3-epoxysqualene concentration in the liver (rat) [5, 15]: 70.3 µg/g
- 2,3-epoxysqualene concentration in the liver (rat) [5, 16]: 112.6 µg/g
- IC50 [4]: 0.5 nM
- percentage inhibition of 14C-acetate incorporation ([4]; test concentration 10^−8 mol/l): −87%
- percentage inhibition of 14C-acetate incorporation ([4]; test concentration 10^−9 mol/l): −65%
